Laboratory results from patent US5130339A, “Phenylethanolaminomethyltetralins and pharmaceutical use” (Sanofi, priority 1989, dated 1992).

Assays:
[1] = tested on: isolated proximal colon rat strips; assay: Reduction of spontaneous contractile activity of isolated proximal colon rat strips (in vitro); assay type: cell-based; details: Krebs-Ringer, 37° C., read-out: EC50, on colon (concentration effective to reduce by 50% the contractile activity observed in controls)
Text: In particular, their effects in reducing colon spontaneous motility have been observed in in vitro normalized pharmacological tests and has been confirmed in the animal in vivo.
In the in vitro tests, the capability of different concentrations of the phenylethanolaminomethyltetralins of the present invention to reduce, under particular normalised conditions, the spontaneous contractile activity of isolated proximal colon rat strips has been evaluated.
Not fasted male rats weighing 250-300 g are sacrificed. The proximal part of the colon, approximately a 2 to 3 cm segment, is removed and suspended in a 20-ml organ bath containing oxygenated (5% CO2, 95% O2) Krebs-Ringer solution with the following mM composition: NaCl 118.4; KCl 4.7; CaCl2 2.45; MgSO4 1.16; NaH2 PO4 3.7; glucose 5.6; NaHCO3 30.9, kept at a constant temperature of 37° C. The colon strips submitted to a 1 g traction spontaneously contract. The test compounds are added thereto after stabilisation of the preparation (2h).
The EC50, i.e. the concentration which is effective to reduce by 50% the contractile activity observed in controls, is determined.

isolated rat uterus = assay: Effect on spontaneous uterus motility, same general method on isolated rat uterus (in vitro); assay type: cell-based; details: for selectivity ratio (EC50 uterus / EC50 colon): colon versus uterus; for EC50: isolated rat uterus, spontaneous motility

SMILES	EC50 [1] [nM]	selectivity ratio (EC50 uterus / EC50 colon) (isolated rat uterus)	EC50 (isolated rat uterus) [nM]
COc1ccc2c(c1)CC(CNCC(O)c1cccc(Cl)c1)CC2.Cl (stereo not drawn) [Example 4, N-[(7-methoxy-1,2,3,4-tetrahydronaphth-2-yl)methyl]-2-hydroxy-2-(3-chlorophenyl)ethanamine hydrochloride]	43	57	2450
COc1ccc2c(c1)CC(NCC(O)c1cccc(Cl)c1)CC2.Cl (stereo not drawn) [Example 7 of EP-B-211,721, N-(7-methoxy-1,2,3,4-tetrahydronaphth-2-yl)-2-hydroxy-2-(3-chlorophenyl)ethanamine hydrochloride]	194	lower than 2	350
Oc1ccc2c(c1)CC(NCC(O)c1cccc(Cl)c1)CC2 (stereo not drawn) [Example 8 of EP-B-211,721]	110	1	110
O=C(O)C(=O)O.Oc1ccc2c(c1)CC(CNCC(O)c1cccc(Cl)c1)CC2 (stereo not drawn) [Example 10, N-[(7-hydroxy-1,2,3,4-tetrahydronaphth-2-yl)methyl]-2-hydroxy-2-(3-chlorophenyl)ethanamine oxalate]	7	about 7	50
